Test results taken from the supplement of paper PMC11451515.

How the values were obtained:
Assay in all cases: AUC of viability dose-response curve (% viability x log10 dose units); higher = less sensitive
Conditions in all cases: 48 h
SEM cells = tested on: SEM cells
Procedure, shortened: (§1)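 Library compounds in DMSO were applied for 48 h at 37°C at 11 threefold doses (47 μM to 0.79 nM) to medium-adapted leukemia cells in 1536-well plates holding 500 or 1000 cells/well. Luminescence from CellTiter-Glo One was normalised plate by plate against DMSO and cell-free wells. Area under the curve came from trapezoidal integration of a log-logistic fit, after scaling curves that rose above full viability and discarding those that failed quality control. The fit had four parameters and used log10 doses.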

P12-Ichikawa = tested on: P12-Ichikawa
Procedure, shortened: as §1

NOMO1 = tested on: NOMO1
Procedure, shortened: as §1

[1] = RPMI 5 mM glucose + 10% dialyzed FBS

SMILES | AUC of viability dose-response curve (SEM cells; HPLM + 10% dialyzed FBS) | AUC of viability dose-response curve (SEM cells; RPMI 5 mM glucose + 10% FBS) | AUC of viability dose-response curve (SEM cells; [1]) | AUC of viability dose-response curve (P12-Ichikawa; HPLM + 10% dialyzed FBS) | AUC of viability dose-response curve (P12-Ichikawa; RPMI 5 mM glucose + 10% FBS) | AUC of viability dose-response curve (P12-Ichikawa; [1]) | AUC of viability dose-response curve (NOMO1; HPLM + 10% dialyzed FBS) | AUC of viability dose-response curve (NOMO1; RPMI 5 mM glucose + 10% FBS) | AUC of viability dose-response curve (NOMO1; [1])
COc1ccc(-n2nc(C(N)=O)c3c2C(=O)N(c2ccc(N4CCCCC4=O)cc2)CC3)cc1 | 464 | 432 | 442 | 371 | 370 | 381 | 313 | 270 | 300
NC\1=N\C(=O)N(\C=C1)[C@@H]2O[C@H](CO)[C@@H](O)[C@H]2O | 452 | 443 | 438 | 467 | 471 | 469 | 417 | 463 | 466
C[C@]12CC[C@@H]3c4ccc(O)cc4C[C@@H](CCCCCCCCC[S+]([O-])CCCC(F)(F)C(F)(F)F)[C@H]3[C@@H]1CC[C@@H]2O (some centres not stated) | 475 | 411 | 459 | 464 | 462 | 455 | 428 | 470 | 429
Cc1cc2c(F)c(Oc3ncnn4cc(OC[C@@H](C)O)c(C)c34)ccc2[nH]1 | 394 | 372 | 380 | 442 | 454 | 448 | 459 | 453 | 446
CC(C)C[C@@H](C=O)NC(=O)[C@H](CC(C)C)NC(=O)[C@H](CC(C)C)NC(=O)OCc1ccccc1 | 305 | 279 | 315 | 364 | 324 | 361 | 337 | 312 | 351
C=CC(=O)N1CCC[C@@H](n2nc(-c3ccc(Oc4ccccc4)cc3)c3c(N)ncnc32)C1 | 456 | 443 | 424 | 414 | 458 | 452 | 462 | 446 | 467
C[S+]([O-])(=O)C1=CC=C(C=C1)C/2=C(/C(=O)OC2)C3=CC=CC=C3 | 466 | 431 | 453 | 468 | 449 | 472 | 465 | 463 | 445
N#Cc1c(NC(=O)c2cccc3ccccc23)sc2c1CCCC2 | 318 | 304 | 310 | 325 | 325 | 346 | 345 | 339 | 346
Cc1cn([C@@H]2O[C@H](CO)[C@@H](O)[C@@H]2F)c(=O)[nH]c1=O | 467 | 437 | 469 |  |  |  | 456 | 460 | 458
S=C1N\C=N/C2=C1[NH]C=N2 | 445 | 409 | 360 | 404 | 377 | 343 | 425 | 446 | 360
